Measured values taken from patent US20050202070A1, “Iodine/iodide-containing hot melt coatable adhesive, methods and uses therefor” (priority 2002, published 2005).
Where two headings read alike, the source gives them in different places.

Experiments:
[1] = Solubility of PVPI, I2/NaI and I2 in plasticizer compounds
[2] = cited from earlier work

Compound | Solubility of 2% I2/2.4% NaI in the plasticizer [1] | Solubility of 18% I2 in the plasticizer [1] | Vapor pressure ([2]; at 25C) [mmHG] | Vapor pressure ([2]; at 90C) [mmHg] | Vapor pressure ([2]; at 184.4C (boils)) [mmHg]
CCCCNS(=O)(=O)c1ccccc1 [Plasthall BSA, N-n-butylbenzenesulfonamide] | Soluble | Soluble |  |  | 
II [iodine] |  |  | 0.30 | 26.7 | 760
CCCCC(CC)C(=O)OCCOCCOCCOCCOC(=O)C(CC)CCCC (stereo not shown) [TerMerR 804, tetraethyleneglycol di-2ethylhexanoate] | Soluble | Soluble |  |  | 
